Data set [1] is described as follows: In vitro proteolytic stability in human serum. Type of data set: in vitro ADME. As to conditions: 37°C, intact peptide at different time points estimated by RP-HPLC. Here is the method:
Subsequently, we investigated the proteolytic stability of R5, and R14 compared to AC253. […] By assessing the main degradation fragments for both peptides using MALDI-TOF, we found both peptides to be cleaved at the basic arginine amino acids.
Supplementary Figure S2: The comparison of bio-distribution for the fragments and their parent peptide. (A) Ex vivo fluorescence showing bio-distribution images for Cy5.5-R5, R14, AC253 in different organs at after a 2 h of a single ip injection of the peptides (0.1 mmol in 200µl saline). (B) Quantification of peptides fluorescence in each organ (n=3). (C) In vitro stability of R5, R14, and AC253 peptides in human serum compared with AC253 at 37°C. The amount of intact peptide in human serum at different time points was estimated using RP-HPLC.

Data set [2] can be described thus: Ex vivo NIR fluorescence brain imaging after ip injection (brain penetration). In kind it is in vivo, mouse. As to conditions: wild-type mice, 0, 0.6, 2, 10, 20 mg/kg single ip dose, 2 h, n = 3 per dose. The source says: Blood brain barrier (BBB) penetration can limit the potential of long sequence peptides as therapeutic agents in central nervous system (CNS). Previously, we have reported that a cyclized form of AC253 peptide and to a lesser degree its linear form can both penetrate the BBB at therapeutically relevant levels, and are localized to the hippocampus and cortex, regions relevant to memory and learning processes. Therefore, we examined the ability of Cy5.5 labeled peptide fragments (R5, and R14) to penetrate BBB in wild-type mice using NIR fluorescence ex vivo brain imaging. Brain fluorescence resulting from either R5 or R14 was assessed against full length AC253 2 h after a single intraperitoneal (ip) injection of peptides. […] Fluorescence signals were distributed throughout the cortex, but particularly strong within the hippocampal regions, where a very high density of amylin receptor expression has been reported. […]
In vivo brain penetration and pharmacokinetics of the peptides were determined in 6-month-old male or female wild-type (C57BL/6 background) and heterozygous CTR mice (het-CTR). […]
For ex vivo imaging experiments and peptide brain uptake, we used age matched 6-month-old wild-type littermate (C57BL/6 background) mice. […] Region of interest was drawn around the brain region and analyzed using the Kodak ID 3.6 software and the mean fluorescence intensity was recorded. […]

The subject of data set [3] is hippocampal LTP (CA1). As to the kind of experiment: Hippocampal long-term potentiation (LTP) in slices from wild type mice. Also on record: species or system mouse. As to conditions: wild type mouse slices, 250 nM. As to the method:
We examined whether the peptide fragments were capable of influencing Aβ- or hAmylin-induced reduction of hippocampal LTP in mice. Exposure of hippocampal slices from wild-type mice to hAmylin (50 nM) or Aβ (50 nM) depressed LTP induced by a weak tetanization protocol at the CA1 region as previously reported[20],[30]. To determine whether peptides affected hAmylin or Aβ- induced depression of LTP, we applied 250 nM R5 or R14 continuously for 5 min prior to exposure of the hippocampal slices to 50 nM hAmylin or Aβ and the subsequent LTP induction. […] We therefore sought to determine whether peptide fragments were also capable of improving LTP levels in the same TgCRND8 AD mouse model. […] Importantly, doses of the short peptide fragments used in these experiments were equimolar to those used for AC253 and pramlintide in our previous studies[20],[30].
For electrophysiology experiment, hippocampal slices (400-μm thick) were prepared using a vibratome from wild type and TgCRND8 mice (8 month of age, male or female). For long-term potentiation (LTP) measurement, the stimulus strength was set to elicit 40–50% of the maximum fEPSP (field excitatory postsynaptic potential) amplitude and test pulses were delivered once every 30s. LTP was induced by 3-theta-burst stimulation protocol (each burst consisted of four pulses at 100 Hz with a 200-ms interburst interval). All drugs and chemicals were applied directly to the slice via bath perfusion.
Brains were quickly removed from mice following decapitation, placed in a cold artificial cerebral spinal fluid (aCSF) on a vibratome chamber, and transverse sections cut through the hippocampus. The aCSF contained (in millimolar 124 NaCl, 3 KCl, 2.4 CaCl2, 2 MgCl2, 1.25 NaH2PO4, 26 NaHCO3, and 10 D-glucose and was equilibrated with 95 % O2 and 5 % CO2. Hippocampal slices (400-μm thick) were maintained in aCSF-filled holding chamber at room temperature for at least 1 h and individually transferred to the submerged glass bottom recording chamber, which was constantly perfused with aCSF (2 ml/min) at 30 °C. Field excitatory postsynaptic potential (fEPSP) was recorded with a metallic (Pt/Ir) electrode (FHC, Bowdoin, ME) from the stratum radiatum layer of Cornu ammonis 1 region of the hippocampus (CA1) area, and the Schaffer collateral afferents were stimulated with 100-μs test pulses via a bipolar cluster electrode (FHC). For long-term potentiation (LTP) experiments, the stimulus strength was set to elicit 40–50 % of the maximum fEPSP amplitude and test pulses were delivered to Schaffer collaterals once every 30 s. […] Before 3-TBS or drug application, the responses were monitored for at least 10 min to ensure a stable baseline of fEPSP. […]

Data set [4] concerns the target T1, AMY3 receptor (CTR+RAMP3) expressed on HEK293 cells (HEK-AMY3) (Homo sapiens, UniProt O60896+P30988).
T1 construct: expressed in transfected cells
T1 sequence (P30988 25-474): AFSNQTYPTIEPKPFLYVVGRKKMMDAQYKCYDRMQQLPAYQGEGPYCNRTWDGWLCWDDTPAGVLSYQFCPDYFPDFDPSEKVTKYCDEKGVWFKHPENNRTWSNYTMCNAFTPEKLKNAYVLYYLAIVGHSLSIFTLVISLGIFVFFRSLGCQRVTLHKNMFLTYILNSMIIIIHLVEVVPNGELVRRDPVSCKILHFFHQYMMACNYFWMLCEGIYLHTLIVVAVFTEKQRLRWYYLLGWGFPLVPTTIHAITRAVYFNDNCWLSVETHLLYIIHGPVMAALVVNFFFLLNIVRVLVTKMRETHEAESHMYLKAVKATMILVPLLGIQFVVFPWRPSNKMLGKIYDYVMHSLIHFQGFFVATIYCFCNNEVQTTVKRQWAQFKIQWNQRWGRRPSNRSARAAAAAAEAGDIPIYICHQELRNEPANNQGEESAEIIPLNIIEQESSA
T1 sequence (O60896 24-148): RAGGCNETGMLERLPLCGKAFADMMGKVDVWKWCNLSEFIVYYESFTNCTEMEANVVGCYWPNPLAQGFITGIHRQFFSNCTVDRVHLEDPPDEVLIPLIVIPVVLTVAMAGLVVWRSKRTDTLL
As to the kind of experiment: Peptide array-cell binding assay (SPOT cellulose membrane, GFP-labeled cells). As to conditions: library R1-R14 on cellulose membrane, GFP-labeled HEK-AMY3 vs HEK-WT and HEK-CTR cells. The source says:
In order to identify shorter peptides with selective recognition and binding to amylin receptor, enhanced metabolic stability and brain penetrability than the linear full length peptide, we designed a peptide library comprised of 14 different sequences, namely, R1-R14. Fragments (R1−R13) are 12 amino acids in length and peptide R14 is 14 amino acids. The initial fragment comprised the first 12 amino acids from the N-terminus of AC253 sequence, and subsequent fragments derived from shifting one amino acid at a time, as depicted in Supplemental Fig. S1A. […] The relative binding affinities of peptide fragments were determined through measuring and plotting the net fluorescence intensity of the bound GFP labeled live cells on each spot as measured with a fluorescence Kodak imager (Supplemental Fig. S1C). […]
To screen peptide library for amylin receptor binding affinity, transfected GFP-positive Human Embryonic Kidney 293 cells that express AMY3 receptor (CTR+RAMP3) as previously reported was used ^8. […] The membrane was scanned at 465 nm excitation and 535 nm emission and the net fluorescence intensity of each peptide spot was quantified using Kodak IS2000MM Image station (GE Healthcare Systems/ART Inc). […]

A short description of data set [5]: Brain uptake of R5 compared with davalintide, wild-type and het CTR mice. In kind it is in vivo, mouse. As to conditions: Cy5.5 labeled, ip 0.1 mmole, intact brain imaged 2 h post-injection, wild-type and het CTR mice, n=5 per group. As to the method: For peptide R5 brain uptake in comparison to Davlintide, wild-type littermate (C57BL/6 background) mice and heterozygous CTR knockdown mice (50% CTR expression level compared to wild type control mice and presumably with 50% AMY receptor expression level) was used (n=5 in each group). Mouse brains were extracted after 2h from a single injection and fluorescence in brains was quantified as mentioned above.
Supplementary Figure S3: The comparison of brain permeability for R5 and Davalintide.

On the set-up of data set [6]: method as in PMID 29067318. As to conditions: mouse, not told; cited from earlier work.

Positions of bridges follow the written chain, without caps; N, C: chain ends. No end group written: not given here.

The term half-life denotes how long it takes for the measured level to halve. As to LGRLSQELHRLQTY-NH2 [R14], the half-life in data set [1] was 1.5 h. In addition, the “accumulation in the brain at increasing dose” value in data set [2] is recorded as “dose-dependent”.

Take LQTYPRTNTGSN [R11]: in data set [3], the “effect of peptide alone on hippocampal LTP” value is “did not impair LTP”. In data set [4], the “relative binding to HEK-AMY3 cells in library screening” value is “minimal binding”.

For the substance davalintide [reference compound], the “brain permeability, R5 versus davalintide” value in data set [5] is reported as “lower brain permeability”.

Turning to “pramlintide: synthetic analog of amylin (KCNTATCATQRLANFLVHSSNNFGPILPPTNVGSNTY-NH2; disulfide 2-7; chains of the INN, looked up)”, the “brain permeability after systemic administration compared with cAC253 or R5” value in data set [6] is reported as “lower brain permeability”.

The values above are taken from publication PMC6662706, “Short amylin receptor antagonist peptides improve memory deficits in Alzheimer’s disease mouse model” (Scientific Reports, 2019).
